This is an account of results in PubChem BioAssay AID1996.

In brackets after ≈: the same amount, converted by molar mass. A value given as a limit tells only on which side of the number the result lay.

The conditions of the series: buffer; pH 7.4; 200.0 µM.
On to `O=CN1CCN(C(=O)c2ccc3c(c2)OCO3)CC1`, for which the solubility (kinetic) – broadly, solubility judged after dilution from a stock solution rather than from solid – is over 39.3 µg/mL.
Regarding `CNc1ccc(S(=O)(=O)NC)cc1[N+](=O)[O-]`, the solubility (kinetic) was over 36.8 µg/mL.
As for `COc1cccc(OC(=O)N2CCOCC2)c1`, the figure is over 35.6 µg/mL; as for `Cl.c1ccc(C2CNCCc3ccccc32)cc1` (stereo not given), over 39 µg/mL; as for `Cl.c1ccc(CCNCc2cccnc2)cc1`, 35.3 µg/mL.
As for `Cc1ccc(C2SCC(=O)N2Cc2ccccc2)cc1` (stereo not given), the figure is 21.9 µg/mL (≈ 77.3 µM).
As for `NC(=O)c1ccc(N=C2C(=O)Nc3ccc([N+](=O)[O-])cc32)cc1`, the figure is 13.1 µg/mL (≈ 42.2 µM).
The compound `CCOc1ccccc1N=Cc1c(O)n(C)c(=O)n(C)c1=O` registered a solubility (kinetic) of 1.1 µg/mL (≈ 3.63 µM).
`O=c1[nH]cnc2c1ncn2[C@@H]1O[C@H](CO)[C@@H](O)[C@H]1O` came in with a solubility (kinetic) of over 40.2 µg/mL.
The figure for `N#Cc1ccc2c(c1)NC(=O)C1CCCN21` (stereo not given) is 27.8 µg/mL (≈ 130 µM).
As for `Cc1cc(OCC(=O)Nc2ccc3oc(=O)ccc3c2)ccc1Cl`, the figure is 2.4 µg/mL (≈ 6.98 µM).
As for `O=C(O)c1cc(NS(=O)(=O)c2ccc(F)cc2)cc(NS(=O)(=O)c2ccc(F)cc2)c1`, the figure is over 70.3 µg/mL; as for `COc1ccc2[nH]cc(CCNS(=O)(=O)c3ccc(C)cc3)c2c1`, 50.6 µg/mL (≈ 147 µM).
As for `O=C(CSc1ncccn1)Nc1ccc2c(c1)OCO2`, the solubility (kinetic) is over 43.4 µg/mL.
On to `CC(C)(C)c1ccc(C(=O)OCC(=O)NCc2ccco2)cc1`, for which the kinetic solubility came out at 39 µg/mL (≈ 124 µM).
As for `CNC(=O)CN1C(=O)NC(c2ccccc2)(c2ccccc2)C1=O`, the figure is over 48.5 µg/mL.
The figure for `COc1cc(C(C)=O)ccc1Oc1ncccn1` is over 36.6 µg/mL.
As for `CC(NC(=O)Nc1ccc(Cl)cc1)c1ccc2c(c1)OCO2` (stereo not given), the figure is 2.8 µg/mL (≈ 8.78 µM); as for `O=C(CCC1CCN(Cc2ccc(Cl)cc2)CC1)NC1CC1`, 41.3 µg/mL (≈ 129 µM).
`Cc1cc(CNC(=O)c2cccc([N+](=O)[O-])c2)c2ccccc2n1` showed a solubility (kinetic) of 2.8 µg/mL (≈ 8.71 µM).
As for `Cc1ccc(OCC(=O)NCCNC(=O)c2ccncc2)cc1`, the figure is 45.1 µg/mL (≈ 144 µM); as for `CCOC(=O)N1CCN(C(=O)CNC(=O)c2ccccc2F)CC1`, over 50.6 µg/mL.
As for `Cc1cc(C)cc(NC(=O)CN2CCN(C(=O)c3cccs3)CC2)c1`, the figure is over 53.6 µg/mL; as for `Cc1cc(C)c2c(N)c(C(=O)c3ccc(Br)cc3)oc2n1`, 1.2 µg/mL (≈ 3.48 µM); as for `Cn1c(=O)[nH]c2ncccc21`, over 22.4 µg/mL.
The figure for `COc1ccccc1/C=C1\SC(N2CCC(C)CC2)=NC1=O` is 35 µg/mL (≈ 111 µM); for `CCCCn1c(=O)c(C(=O)Nc2ccccc2C)c(O)c2ccccc21` it is under 0.4 µg/mL; for `COc1ccc(Cl)cc1N1C(=O)CC(N2CCN(S(=O)(=O)c3ccccc3F)CC2)C1=O` (stereo not given) it is 38.3 µg/mL (≈ 79.5 µM).
Turning to `Cc1cccc(NCc2ccccc2)c1`, the solubility (kinetic) was 0.8 µg/mL (≈ 4.06 µM).
Compound `Cc1cnc(NC(=O)c2ccc3ncsc3c2)s1` returned a solubility (kinetic) of 3.5 µg/mL (≈ 12.7 µM).
As for `O=C(O)C1C2CCC(C2)C1C(=O)Nc1cccc([N+](=O)[O-])c1` (stereo not given), the figure is 13.9 µg/mL (≈ 45.7 µM); as for `COc1ccc(Nc2nc(-c3cccnc3)cs2)c(OC)c1`, 26.3 µg/mL (≈ 83.9 µM).
The figure for `CCOc1ccccc1NC1=NC2CS(=O)(=O)CC2S1` (stereo not given) is over 46.9 µg/mL.
In turn, `COc1ccccc1CN1C(=O)CNC1=S` gave a kinetic solubility of over 35.4 µg/mL.
In turn, `CC(Oc1cccnc1[N+](=O)[O-])C(=O)N1CCc2ccccc21` (stereo not given) had a solubility (kinetic) of over 47 µg/mL.
As for `O=C1C2C3c4ccccc4C(c4ccccc43)[C@@H]2C(=O)N1c1ccccn1` (stereo not given in full), the figure is 2.9 µg/mL (≈ 8.23 µM); as for `CC(C)c1ccc(C(=O)NCCCNC(=O)c2cnccn2)cc1`, over 49 µg/mL.
The figure for `CCOC(=O)CCCC(=O)N1CCOCCOCCOCC1` is over 47.6 µg/mL; for `O=C(O)c1ccc(S(=O)(=O)NCc2cccnc2)cc1` it is over 43.8 µg/mL; for `CCOc1ncccc1C(=O)Nc1ccccc1N1CCOCC1` it is over 49.1 µg/mL.
Take `Cc1onc(-c2ccccc2)c1C(=O)Nc1ccc(Cl)cn1`: the solubility (kinetic) was determined as 3.1 µg/mL (≈ 9.88 µM).
For the compound `Cc1ccc(Oc2c(C)nc(-c3ccccc3)[nH]c2=O)cc1`, the solubility (kinetic) stood at 1 µg/mL (≈ 3.42 µM).
`CC(=O)c1ccc(N=C2SCCCN2C(=O)C2CCCCC2)cc1`: the kinetic solubility is 42.2 µg/mL (≈ 123 µM).
`CN=C1S/C(=C\c2ccc(O)c(OC)c2)C(=O)N1C` had a solubility (kinetic) of 5.9 µg/mL (≈ 21.2 µM).
As for `O=C(NC1CCCC1)C1CCN(c2cnccn2)CC1`, the figure is over 41.2 µg/mL; as for `O=C(COC(=O)c1ccccc1F)NC1CC1`, over 35.6 µg/mL; as for `Cc1ccccc1C(=O)Nc1ccc(N2CCCC2)cc1.Cl`, 7.8 µg/mL.
As for `CC1CCN(C(=O)c2cc3ccccc3cc2O)CC1`, the figure is over 40.4 µg/mL; as for `COc1ccc(S(=O)(=O)NCCc2ccco2)cc1OC`, over 46.7 µg/mL; as for `Cc1ccc(C)c(/C=C2\N=C(c3ccccc3F)OC2=O)c1`, 11.8 µg/mL (≈ 40 µM).
As for `O=C(CCCN1C(=O)c2cccnc2C1=O)Nc1ccccc1F`, the figure is 46.4 µg/mL (≈ 142 µM); as for `C=CCC(=O)NC(C)c1cnn(-c2ccccc2C)c1C` (stereo not given), over 42.5 µg/mL.
`CCc1nc(Nc2cccc(F)c2)c2oc3ccccc3c2n1.Cl` showed a kinetic solubility of under 0.2 µg/mL.
In the case of `CCOc1ccccc1C(=S)NC1CCCCC1`, the kinetic solubility came out at 14.5 µg/mL (≈ 55 µM).
The compound `CC1CCCN(S(=O)(=O)c2cccc(C(=O)NCC3CCCO3)c2)C1` (stereo not given) returned a solubility (kinetic) of over 55 µg/mL.
As to `Cc1c(-c2nc(-c3ccc(C(C)(C)C)cc3)no2)n(C)oc1=O`, the solubility (kinetic) is under 0.2 µg/mL.
The figure for `CC(=O)Nc1ccc(OC(=O)N2CCCC2)cc1` is over 37.2 µg/mL.
The figure for `CN(Cc1ccc(F)cc1)Cc1nc(CCc2ccccc2)no1` is 5.7 µg/mL (≈ 17.5 µM).
As for `COCc1ccc(CN2CCC(CO)(CC3CCCCO3)CC2)o1` (stereo not given), the figure is over 50.6 µg/mL.
Regarding `O=C(CNC(=O)c1ccc(Br)o1)NC1CCCCC1`, the solubility (kinetic) was over 49.4 µg/mL.
The figure for `CCOc1ccccc1NC(=O)Nc1cc(S(=O)(=O)N(C)C)ccc1C` is 0.6 µg/mL (≈ 1.59 µM); for `CC(C)C(C)N(Cc1cccc(C(=O)O)c1)C(=O)c1ccc2ccccc2n1` (stereo not given) it is 31.7 µg/mL (≈ 84.2 µM); for `O=C(c1ccc(F)cc1F)N1CCN(c2ccccn2)CC1` it is over 45.5 µg/mL.
As for `CCOP(=O)(OCC)C(Nc1cccc([N+](=O)[O-])c1)c1ccccc1` (stereo not given), the figure is 7.8 µg/mL (≈ 21.4 µM); as for `CCNC(=O)CC1C(=O)N(c2cccc(C)c2)C(=O)N1CCC(C)C` (stereo not given), over 51.8 µg/mL; as for `Nc1nc(NCCN2CCOCC2)nc(NCc2ccccc2)c1[N+](=O)[O-]`, 12 µg/mL (≈ 32.1 µM).
The figure for `O=C(Nc1ccc(F)cc1)N1CCCN(c2ccc(C(F)(F)F)cn2)CC1` is 2.2 µg/mL (≈ 5.75 µM).
`CC1CC(NC2=NCCS2)CC(C)(C)C1` (stereo not given) displayed a solubility (kinetic) of 24.6 µg/mL (≈ 109 µM).
As for `COc1ccc(S(=O)(=O)n2cccc2)cc1OC`, the figure is 11.8 µg/mL (≈ 44.1 µM).
The figure for `O=C1c2ccccc2NC(c2cccc(O)c2)N1O` (stereo not given) is over 38.4 µg/mL; for `Cl.O=C(c1cc(-c2cccc3ccccc23)nc2ccccc12)N1CCN(CCO)CC1` it is over 67.2 µg/mL.
As for `CCc1c(C)nc(N2CCN(c3ccccc3)CC2)[nH]c1=O`, the figure is 8.8 µg/mL (≈ 29.5 µM); as for `CC(NC=O)c1nc2ccccc2n1CCc1ccccc1` (stereo not given), 43.9 µg/mL (≈ 150 µM); as for `COc1ccc(C2C(C(C)=O)=C(C)Nc3ncnn32)cc1[N+](=O)[O-]` (stereo not given), over 49.4 µg/mL.
Compound `Cn1c(CNC(=O)C2CCCCC2)cc2ccccc21` registered a kinetic solubility of 1.7 µg/mL (≈ 6.29 µM).
The figure for `COc1ccc(NC(=S)Nc2cccc(C(C)=O)c2)cc1OC` is over 49.6 µg/mL.
The figure for `COc1ccc(NC(=S)N(CCN(C)C)Cc2cccs2)cc1` is over 52.4 µg/mL; for `CC(C)OC(=O)CC1C(=O)NCCN1C(=O)COc1ccc(C(C)(C)C)cc1` (stereo not given) it is 49.4 µg/mL (≈ 127 µM).
As for `O=C1CSC(c2ccccc2[N+](=O)[O-])N1c1ccc(O)cc1` (stereo not given), the figure is over 47.4 µg/mL; as for `NC(Cc1ccc(OC(F)F)cc1)C(=O)O` (stereo not given), 32.7 µg/mL (≈ 141 µM); as for `O=C(Nc1nc2ccc(F)cc2s1)c1cccs1`, 1.1 µg/mL (≈ 3.95 µM).
With `COC(=O)c1ccc(N2CCN(C)CC2)c(NC(=O)c2cccnc2)c1`, the kinetic solubility was 51.4 µg/mL (≈ 145 µM).
For `CC1(C)Cc2c(sc3nc(SCC(=O)O)nc(N)c23)CO1`, the kinetic solubility is over 48.8 µg/mL.
The figure for `CNc1ccc(Br)cc1C(O)c1ccccc1` (stereo not given) is 34.7 µg/mL (≈ 119 µM).
In the case of `Cc1ccc(S(=O)(=O)N2CCOCC2)cc1NC(=O)CN1C(=O)NC2(CCCC2)C1=O`, the kinetic solubility is over 67.6 µg/mL.
As for `Cc1cccc(C(=O)NC(=S)N(C)C2CCCCC2)c1`, the figure is 35.9 µg/mL (≈ 124 µM); as for `Nc1ncnc2nc[nH]c12`, over 20.3 µg/mL.
Take `O=C(O)CCC(=O)Nc1nc2nccc(-c3ccccc3)n2n1`: the solubility (kinetic) was over 46.7 µg/mL.
`CCOC(=O)CNC(=O)N1CCCC(N(C)CCc2ccccc2)C1` (stereo not given) came in with a kinetic solubility of over 52.1 µg/mL.
As for `COCC(C)NCc1cccc2ccccc12.O=C(O)C(=O)O` (stereo not given), the figure is over 47.9 µg/mL.
As for `Cc1ccc(C(=O)N2CCC(C(=O)NC3CCCCCC3)CC2)cc1`, the figure is 48.1 µg/mL (≈ 140 µM); as for `Cc1ccc(C(=O)N2CC=C(c3ccccc3)CC2)o1`, 39.1 µg/mL (≈ 146 µM); as for `CCc1ccc(C2C(C#N)=C(N)Oc3cc(N)ccc32)cc1` (stereo not given), 2.4 µg/mL (≈ 8.24 µM).
The figure for `Fc1ccccc1NC(=S)NCc1ccc(Cl)cc1` is 11.2 µg/mL (≈ 38 µM); for `CCc1cccc(C)c1NC(=O)CSc1nc(C)c(C)o1` it is over 45.7 µg/mL.
In turn, `Cc1ccc(NC(=O)CN(C)CC(=O)Nc2ccccc2C#N)cc1` displayed a solubility (kinetic) of over 50.5 µg/mL.
As for `CCn1ccnc1CN(C)Cc1nc(CCC(C)C)no1`, the figure is 38.4 µg/mL (≈ 132 µM); as for `O=[N+]([O-])c1ccc(N2CCOCC2)cc1O`, over 33.6 µg/mL.
As for `COc1cc(NC(N)=S)c(OC)cc1Cl`, the figure is over 37 µg/mL; as for `CCC(CC)C(=O)NCc1cccnc1`, over 30.9 µg/mL; as for `C=CCn1c(=O)c(C(=O)NCc2ccc3c(c2)OCO3)c(O)c2ccccc21`, 1.3 µg/mL (≈ 3.44 µM).
As for `Cc1c(C(=O)N(C)CCn2ccnc2C)oc2c(F)cccc12`, the figure is 38.1 µg/mL (≈ 121 µM); as for `COC(=O)CNC(=O)c1cccc(Cl)c1`, over 34.1 µg/mL.
`CCNC(=O)COC(=O)/C=C/c1cccs1` returned a solubility (kinetic) of over 35.9 µg/mL.
The figure for `O=C(Cc1ccc(Cl)cc1Cl)OCC(=O)N1CCCCC1` is over 49.5 µg/mL.
